Reference: patent publication US10647690B2, “2,3-epoxy succinyl derivative, preparation method and use thereof” (Institute of Pharmacology and Toxicology Academy of …, priority 2016, dated 2020)
Read-outs that look alike come from different tables or passages of the source.

Key:
Cathepsin K [1] = target: T1, Cathepsin K (Homo sapiens, UniProt P43235); assay: Preliminary screening of Cathepsin K (Cathepsin K Inhibitor Screening Kit K150-100, Biovision); type: biochemical; settings: relative inhibition rate vs 10 μM FF-FMK control
T1 construct: purchased Biovision K150-100
T1 sequence (P43235 115-329): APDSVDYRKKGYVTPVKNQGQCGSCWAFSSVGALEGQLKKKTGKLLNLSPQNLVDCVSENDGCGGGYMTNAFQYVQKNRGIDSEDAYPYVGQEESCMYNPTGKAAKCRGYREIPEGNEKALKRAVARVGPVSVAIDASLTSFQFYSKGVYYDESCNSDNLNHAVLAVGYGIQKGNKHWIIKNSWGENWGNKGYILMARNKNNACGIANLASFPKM
How it was run: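 Percent inhibition was derived from kinetic slopes (ΔRFU/Δt, ex 400/em 505 nm, 120 min at 37 °C), normalized between an uninhibited enzyme control and 10 μM FF-FMK. Compounds were added from 100 μM or 10 μM working solutions (10% DMSO) to Cathepsin K and preincubated 15 min at 25 °C before substrate.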

Cathepsin K [2] = target: T1, Cathepsin K; assay: IC50 determination against Cathepsin K (Biovision kit K150-100); type: biochemical; settings: CTSK
Protocol: 2. Method for determining IC50 of compounds against cathepsin:
IC50 of compounds against Cathepsin K was determined by using Cathepsin K Inhibitor Screening Kit (Product No. K150-100) from Biovision Company;
2.1.1.1 Preparation of Cathepsin K solution: Cathepsin K enzyme (23 μl) and Cathepsin K reagent (46 μl) were added to Cathepsin K buffer (2231 μl), and mixed well, to prepare Cathepsin K enzyme solution with a volume of 2.3 ml, which was placed on ice for further use.
2.1.2 Preparation of compound solutions: 30 mM and 10 mM compound stock solutions, and control compounds were gradiently diluted in DMSO at a ratio of 1:3, wherein the maximum dilution fold was 19683; the gradiently diluted compound solution (3 μl) was added to Cathepsin K, B, L, and S buffer (27 μl), respectively, and mixed well, wherein the control compounds (FF-FMK, F-F-FMK, FF-FMK and Z-FF-FMK) were at the concentrations of 66.67, 22.22, 7.41, 2.47, 0.82, 0.27, 0.091, 0.03, 0.01, 0.0034 and 0 μM, respectively, the test compounds were at the concentrations of 1000, 333.3, 111.1, 37, 12.3, 4.1, 1.4, 0.46, 0.15, 0.05 and 0 μM, respectively, and the final concentration of DMSO was 10%.
2.1.3.1 Cathepsin K: Cathepsin K substrate (90 μl) was added to Cathepsin K buffer (1710 μl), and mixed well, to prepare Cathepsin K substrate solution with a volume of 1.8 ml, which was placed on ice for further use.
Method for screening cathepsin inhibitors: the cathepsin solution (prepared in Item 2.1.1) was added to a 384-well plate (ProxiPlate-384 Plus, Perkinelmer) at 10 μl/well, and centrifuged at 1000 rpm for Imin; the compound solution (prepared in Item 2.1.2) was then added at 2 μl/well, and every concentration was repeated in two wells; the final concentrations of the test compounds were 100, 33.3, 11.1, 3.7, 1.23, 0.41, 0.14, 0.046, 0.015, 0.005 and 0 μM, respectively, wherein the final concentration of DMSO was 1%; after centrifugation at 1000 rpm for 1 min, the plate was put in a 25° C. incubator for 15 min; the cathepsin substrate solution was then added at 8 µl/well, and centrifuged at 1000 rpm for 1 min; and finally, the fluorescence signal was read in Enspire, wherein the exciting light was at a wavelength of 400 nm, the emitting light was at a wavelength of 505 nm, and continuous reading was performed at 37° C. for 120 min.
Data analysis: the slope (S) for all the samples was calculated by ΔRFU(RFU2−RFU1) and time ΔT(T2−T1), including negative control (Enzyme Control, EC) and positive control (Inhibitor Control, IC: 10 μM (FF-FMK, F-F-FMK, FF-FMK and Z-FF-FMK), and the calculation formula was as followed: Relative inhibition rate %=(SEC−SS)/(SEC−SIC)*100. The IC50 for each compound was obtained by means of fitting by software GraphPad Prism 5.0.

[3] = 1 μM compound, replicate 1, read-out: Inhibition % (1 μM) replicate 1
[4] = 1 μM compound, replicate 2, read-out: Inhibition % (1 μM) replicate 2
[5] = 10 μM compound, replicate 1, read-out: Inhibition % (10 μM) replicate 1
[6] = 10 μM compound, replicate 2, read-out: Inhibition % (10 μM) replicate 2
[7] = Exp-1, read-out: IC50 (nM) Exp-1
[8] = Exp-2, read-out: IC50 (nM) Exp-2
[9] = average of Exp-1 and Exp-2, read-out: Ave of IC50

CCCCCCNC(=O)[C@H](CCSC)NC(=O)[C@H]1O[C@@H]1C(=O)OCC [Compound 5, (2s, 3s)-2-ethoxycarbonyl-3-[2-[(s)-4-methylthio-1-carbonyl-1-(hexylamino)butane]formylamino]epoxysuccinic acid]
inhibition at 1 µM (Cathepsin K [1]; [3]): 90.9%
inhibition at 1 µM (Cathepsin K [1]; [4]): 89.5%
inhibition at 10 µM (Cathepsin K [1]; [5]): 91.3%
inhibition at 10 µM (Cathepsin K [1]; [6]): 95.7%
IC50 (Cathepsin K [2]; [7]): 1680 nM
IC50 (Cathepsin K [2]; [8]): 1320 nM
IC50 (Cathepsin K [2]; [9]): 1500 nM

CCOC(=O)[C@H]1O[C@@H]1C(=O)N[C@@H](CCSC)C(=O)NCCCc1ccccc1 [Compound 8, (2s, 3s)-2-ethoxycarbonyl-3-[2-[(s)-4-methylthio-1-carbonyl-1-(3-phenylpropylamino)butane]formylamino]epoxysuccinic acid]
inhibition at 1 µM (Cathepsin K [1]; [3]): 80.5%
inhibition at 1 µM (Cathepsin K [1]; [4]): 78.9%
inhibition at 10 µM (Cathepsin K [1]; [5]): 96.9%
inhibition at 10 µM (Cathepsin K [1]; [6]): 94.1%
IC50 (Cathepsin K [2]; [7]): 2950 nM
IC50 (Cathepsin K [2]; [8]): 1500 nM
IC50 (Cathepsin K [2]; [9]): 2220 nM

CCOC(=O)[C@H]1O[C@@H]1C(=O)N[C@@H](CCSC)C(=O)N1CCC(c2ccccc2)CC1 [Compound 13, (2s, 3s)-2-ethoxycarbonyl-3-[2-[(s)-4-methylthio-1-carbonyl-1-(phenylpiperidinyl)butane]formylamino]epoxysuccinic acid]
inhibition at 1 µM (Cathepsin K [1]; [3]): 99.7%
inhibition at 1 µM (Cathepsin K [1]; [4]): 98.9%
inhibition at 10 µM (Cathepsin K [1]; [5]): 108%
inhibition at 10 µM (Cathepsin K [1]; [6]): 106%
IC50 (Cathepsin K [2]; [7]): 180 nM
IC50 (Cathepsin K [2]; [8]): 148 nM
IC50 (Cathepsin K [2]; [9]): 164 nM

CCOC(=O)[C@H]1O[C@@H]1C(=O)N[C@@H](CCSC)C(=O)NCCc1cccc(F)c1 [Compound 34, (2s, 3s)-2-ethoxycarbonyl-3-[2-[(s)-4-methylthio-1-carbonyl-1-(3-fluorophenylethylamino)butane]formylamino]epoxysuccinic acid]
inhibition at 1 µM (Cathepsin K [1]; [3]): 88.6%
inhibition at 1 µM (Cathepsin K [1]; [4]): 90.8%
inhibition at 10 µM (Cathepsin K [1]; [5]): 94.4%
inhibition at 10 µM (Cathepsin K [1]; [6]): 95.7%
IC50 (Cathepsin K [2]; [7]): 586 nM
IC50 (Cathepsin K [2]; [8]): 448 nM
IC50 (Cathepsin K [2]; [9]): 517 nM

CCOC(=O)[C@H]1O[C@@H]1C(=O)N[C@@H](CCSC)C(=O)NC(CC)CC [Compound 39, (2s, 3s)-2-ethoxycarbonyl-3-[2-[(s)-4-methylthio-1-carbonyl-1-(1-ethylpropylamino)butane]formylamino]epoxysuccinic acid]
inhibition at 1 µM (Cathepsin K [1]; [3]): 81.5%
inhibition at 1 µM (Cathepsin K [1]; [4]): 85.2%
inhibition at 10 µM (Cathepsin K [1]; [5]): 97.3%
inhibition at 10 µM (Cathepsin K [1]; [6]): 99.5%
IC50 (Cathepsin K [2]; [7]): 1680 nM
IC50 (Cathepsin K [2]; [8]): 1610 nM
IC50 (Cathepsin K [2]; [9]): 1650 nM

CCOC(=O)[C@H]1O[C@@H]1C(=O)N[C@@H](CCSC)C(=O)NCCCCc1ccccc1 [Compound 40, (2s, 3s)-2-ethoxycarbonyl-3-[2-[(s)-4-methylthio-1-carbonyl-1-(4-phenylbutylamino)butane]formylamino]epoxysuccinic acid]
inhibition at 1 µM (Cathepsin K [1]; [3]): 85.5%
inhibition at 1 µM (Cathepsin K [1]; [4]): 89.1%
inhibition at 10 µM (Cathepsin K [1]; [5]): 91.1%
inhibition at 10 µM (Cathepsin K [1]; [6]): 94.9%
IC50 (Cathepsin K [2]; [7]): 704 nM
IC50 (Cathepsin K [2]; [8]): 606 nM
IC50 (Cathepsin K [2]; [9]): 655 nM

CCOC(=O)[C@H]1O[C@@H]1C(=O)N[C@@H](CC(C)C)C(=O)NCCC(C)C [zxy-37, E64d, reference compound]
Inhibition % (1 μM) replicate 1 (Cathepsin K [1]; 1 μM compound, replicate 1): 85.73%
Inhibition % (1 μM) replicate 2 (Cathepsin K [1]; 1 μM compound, replicate 2): 87.75%
Inhibition % (10 μM) replicate 1 (Cathepsin K [1]; 10 μM compound, replicate 1): 90.96%
Inhibition % (10 μM) replicate 2 (Cathepsin K [1]; 10 μM compound, replicate 2): 98.34%
IC50 (Cathepsin K [2]; [7]): 488 nM
IC50 (Cathepsin K [2]; [8]): 465 nM
IC50 (Cathepsin K [2]; [9]): 477 nM
